Measured values taken from US20210393645A1, “TREATMENT FOR PROGRESSIVE MULTIPLE SCLEROSIS” (UTI LIMITED PARTNERSHIP, priority 2016, published 2021).
Counter-ions that a name gives are not always drawn. Positions of bridges follow the written chain, without caps; N, C: chain ends. Non-standard residues stand in square brackets, D forms with d. Residues, ends and D or L forms follow the SMILES beside them. *: point of attachment. Ileψ(thiazoline)Cys = CC[C@H](C)[C@H](N)C1=N[C@H](C(=O)*)CS1; dOrn = NCCC[C@@H](N)C(=O)O

What follows are molecules tested on human neurons (assay: Iron (FeSO4) mediated neurotoxicity screening, MAP-2 positive neurons counted). Details: Homo sapiens, Neuron, 24 h, read-out: Drug % control (mean): number of neurons normalized to untreated control.
Assay type: cell-based
Protocol: Human neurons were isolated from brain tissues of therapeutically aborted 15-20 week old fetuses, in accordance with ethics approval of the University of Calgary ethics committee, after written informed consent of the pregnant donors. Neurons were isolated as previously described (Vecil et al., 2000) brain specimens were washed in phosphate buffered saline (PBS) to remove blood, followed by removal of meninges. […] Thereafter, the digestion was stopped by addition of 4 ml fetal calf serum (FCS). […] Cells were cultured in feeding medium of minimal essential medium (MEM) supplemented with 10% fetal bovine serum (FBS), 1 μM sodium pyruvate, 10 μM glutamine, 1× non-essential amino acids, 0.1% dextrose and 1% penicillin/streptomycin (all culture supplements from Invitrogen, Burlington, Canada). […] For experiments, the neuron-enriched cultures were retrypsinized and cells were plated in poly-L-ornithine pre-coated 96-well plates at a density of 100,000 cells/well in 100 μl of the complete medium supplemented with cytosine arabinoside. […] All conditions were performed in quadruplicates. A day later cells were fixed using 4% paraformaldehyde (PFA) and stored in PBS in 4° C.
Briefly, there were 80 compounds located in specific wells on each plate (e. g. B07). […] Each compound was supplied at a concentration of 10 mM dissolved in DMSO.
After filtering with a 0.2 μm filter, FeSO4 was added to cells in a final concentration of 25-50 μM in a volume of 50 μl medium to the cells. Rotenone was dissolved in dimethyl sulfoxide (DMSO) and used in a final concentration of 10 μM.
Staining was performed at room temperature. A blocking buffer was first introduced for 1 h followed by incubation with primary antibody overnight in 4° C.
Cell nuclei were stained with Hoechst S769121 (nuclear yellow). Cells were stored in 4° C. in the dark before imaging.
Images were taken using the automated ImageXpress® imaging system (Molecular Devices, Sunnyvale, Calif.) through a 10x objective microscope lens, displaying 4 or 9 sites per well. […] Cells were defined according to fluorescence intensity and size at different wavelengths. Data from all sites per well were averaged to one data point.
Neurons were pre-incubated with each compound for 1 h followed by application of FeSO4.

Compared with CN1[C@@H]2CC[C@H]1C[C@@H](OC(c1ccccc1)c1ccccc1)C2 [BENZTROPINE], CC1=C(C(=O)O)N2C(=O)[C@@H](NC(=O)[C@H](N)c3ccccc3)[C@H]2SC1 [CEPHALEXIN] is higher in viability at 10 µM: 11.4% for the first, 38.9% for the second.

First: O=C(O)c1cn(C2CC2)c2cc(N3CCNCC3)c(F)cc2c1=O [CIPROFLOXACIN]
Second: COc1cc2c(c(OC)c1OC)-c1ccc(OC)c(=O)cc1[C@@H](NC(C)=O)CC2 [COLCHICINE]
The viability at 10 µM of the first is higher: 41% for the first, 3.12% for the second.

Compared with Clc1cccc(Cl)c1N=C1NCCN1 [CLONIDINE HYDROCHLORIDE], O=P1(N(CCCl)CCCl)NCCCO1 (centres unmarked) [CYCLOPHOSPHAMIDE HYDRATE] is lower in viability at 10 µM: 7.47% for the first, 6.39% for the second.

Same assay, conditions: Homo sapiens, Neuron; drug 10 μM 1 h before FeSO4 25 or 50 μM; MAP-2 neurons after 24 h; read-out: Drug % control (mean): number of neurons normalized to untreated control

Compared with CCCc1nn(C)c2c(=O)[nH]c(-c3cc(S(=O)(=O)N4CCN(C)CC4)ccc3OCC)nc12, CN1CCN(C2=Nc3cc(Cl)ccc3Nc3ccccc32)CC1 [CLOZAPINE] is higher in viability at 10 µM: 49.3% for the first, 101% for the second.

Compared with OC[C@H]1O[C@@H](O[C@@H]2[C@@H](CO)OC(O)(CO)[C@H]2O)[C@H](O)[C@@H](O)[C@H]1O (mixture of isomers) [LACTULOSE], CC[C@H]1OC(=O)[C@H](C)[C@@H](O[C@H]2C[C@@](C)(OC)[C@@H](O)[C@H](C)O2)[C@H](C)[C@@H](O[C@@H]2O[C@H](C)C[C@H](N(C)C)[C@H]2O)[C@](C)(O)C[C@@H](C)CN(C)[C@H](C)[C@@H](O)[C@]1(C)O [AZITHROMYCIN] is lower in viability at 10 µM: 80.8% for the first, 56.8% for the second.

Going from O=C(O)c1cc2cc(Cl)ccc2[nH]1 [5-CHLOROINDOLE-2-CARBOXYLIC ACID] to NCC(CC(=O)O)c1ccc(Cl)cc1 (centres unmarked) [BACLOFEN], the viability at 10 µM falls from 37.3% to 35.8%.

Going from CC(=O)Nc1ccc(O)cc1 [ACETAMINOPHEN] to CC1(C)S[C@@H]2[C@H](NC(=O)[C@H](N)c3ccc(O)cc3)C(=O)N2[C@H]1C(=O)O [AMOXICILLIN], the viability at 10 µM falls from 35.1% to 6.41%.

First: CC(=O)Nc1nnc(S(N)(=O)=O)s1 [ACETAZOLAMIDE]
Second: CCCNC(=O)NS(=O)(=O)c1ccc(Cl)cc1 [CHLORPROPAMIDE]
The viability at 10 µM of the first is higher: 23.6% for the first, 5.32% for the second.

First: CC(=O)N[C@@H](CS)C(=O)O [ACETYLCYSTEINE]
Second: C[C@H](CS)C(=O)N1CCC[C@H]1C(=O)O [CAPTOPRIL]
The viability at 10 µM of the first is lower: 21.7% for the first, 35.3% for the second.

Compared with Oc1ncnc2[nH]ncc12 [ALLOPURINOL], Cn1cnc([N+](=O)[O-])c1Sc1ncnc2nc[nH]c12 [AZATHIOPRINE] is lower in viability at 10 µM: 25.5% for the first, 4.65% for the second.

Compared with CN(C)CCc1c[nH]c2ccc(CS(=O)(=O)N3CCCC3)cc12 [ALMOTRIPTAN], CN(C)CCC(c1ccc(Br)cc1)c1ccccn1 (centres unmarked) [BROMPHENIRAMINE MALEATE] is lower in viability at 10 µM: 94.4% for the first, 79.9% for the second.

Going from CN(C)c1nc(N(C)C)nc(N(C)C)n1 [ALTRETAMINE] to N=C(N)NC(=O)c1nc(Cl)c(N)nc1N [AMILORIDE HYDROCHLORIDE], the viability at 10 µM rises from 4.2% to 37.1%.

First: NC12CC3CC(CC(C3)C1)C2 [AMANTADINE HYDROCHLORIDE]
Second: COc1ccc2c(c1)[C@]13CCCC[C@@H]1[C@H](C2)N(C)CC3 [DEXTROMETHORPHAN HYDROBROMIDE]
The viability at 10 µM of the first is higher: 52.6% for the first, 3.49% for the second.

First: CCCCc1oc2ccccc2c1C(=O)c1cc(I)c(OCCN(CC)CC)c(I)c1 [AMIODARONE HYDROCHLORIDE]
Second: CCCCNc1cc(C(=O)O)cc(S(N)(=O)=O)c1Oc1ccccc1 [BUMETANIDE]
The viability at 10 µM of the first is higher: 71.3% for the first, 29.4% for the second.

First: CN(C)CCC=C1c2ccccc2CCc2ccccc21 [AMITRIPTYLINE HYDROCHLORIDE]
Second: CN(C)CCOC(c1ccccc1)c1ccccc1 [DIPHENHYDRAMINE HYDROCHLORIDE]
The viability at 10 µM of the first is lower: 34.8% for the first, 74.7% for the second.

First: CCOC(=O)C1=C(COCCN)NC(C)=C(C(=O)OC)C1c1ccccc1Cl (centres unmarked) [AMLODIPINE BESYLATE]
Second: Cc1onc(-c2ccccc2Cl)c1C(=O)N[C@@H]1C(=O)N2[C@@H]1SC(C)(C)[C@@H]2C(=O)O [CLOXACILLIN SODIUM]
The viability at 10 µM of the first is higher: 93.1% for the first, 28.4% for the second.

Compared with Cc1cc(=O)n(-c2ccccc2)n1C [ANTIPYRINE], NC(=O)N1c2ccccc2C=Cc2ccccc21 [CARBAMAZEPINE] is higher in viability at 10 µM: 2.11% for the first, 13.3% for the second.

Compared with CC(=O)Oc1ccccc1C(=O)O [ASPIRIN], O=C(O)c1cc(-c2ccc(F)cc2F)ccc1O [DIFLUNISAL] is lower in viability at 10 µM: 68.2% for the first, 4.12% for the second.

Going from CC(C)NCC(O)COc1ccc(CC(N)=O)cc1 (centres unmarked) [ATENOLOL] to CC(C)(Oc1ccc(CCNC(=O)c2ccc(Cl)cc2)cc1)C(=O)O [BEZAFIBRATE], the viability at 10 µM falls from 43.4% to 35.5%.

First: O=C1C(O)=C([C@H]2CC[C@H](c3ccc(Cl)cc3)CC2)C(=O)c2ccccc21 [ATOVAQUONE]
Second: NS(=O)(=O)c1cc(C2(O)NC(=O)c3ccccc32)ccc1Cl (centres unmarked) [CHLORTHALIDONE]
The viability at 10 µM of the first is higher: 67.7% for the first, 7.66% for the second.

First: CC[C@H](C)[C@H](N)C1=N[C@H](C(=O)N[C@@H](CC(C)C)C(=O)N[C@H](CCC(=O)O)C(=O)N[C@H](C(=O)N[C@H]2CCCCNC(=O)[C@H](CC(N)=O)NC(=O)[C@@H](CC(=O)O)NC(=O)[C@H](Cc3cnc[nH]3)NC(=O)[C@@H](Cc3ccccc3)NC(=O)[C@H]([C@@H](C)CC)NC(=O)[C@@H](CCCN)NC2=O)[C@@H](C)CC)CS1 [BACITRACIN] ({Ileψ(thiazoline)Cys}-L[dE]IK[dOrn]I[dF]H[dD]N; lactam 4-C)
Second: CCOC(=O)[C@H](CCc1ccccc1)N[C@H]1CCc2ccccc2N(CC(=O)O)C1=O [BENAZEPRIL HYDROCHLORIDE]
The viability at 10 µM of the first is lower: 5.04% for the first, 72.2% for the second.

First: CC(C[N+](C)(C)C)OC(N)=O (centres unmarked) [BETHANECHOL CHLORIDE]
Second: C[N+](C)(C)CCOC(N)=O [CARBACHOL]
The viability at 10 µM of the first is higher: 16% for the first, 8.87% for the second.

First: CC(=O)Oc1ccc(C(c2ccc(OC(C)=O)cc2)c2ccccn2)cc1 [BISACODYL]
Second: O=C(O)Cc1ccccc1Nc1c(Cl)cccc1Cl [DICLOFENAC SODIUM]
The viability at 10 µM of the first is higher: 93.3% for the first, 5.92% for the second.

Going from CCCC1O[C@@H]2C[C@H]3[C@@H]4CCC5=CC(=O)C=C[C@]5(C)[C@H]4[C@@H](O)C[C@]3(C)[C@]2(C(=O)CO)O1 (some centres unmarked) [BUDESONIDE] to C#C[C@]1(O)CC[C@H]2[C@@H]3CCC4=Cc5oncc5C[C@]4(C)[C@H]3CC[C@@]21C [DANAZOL], the viability at 10 µM falls from 70% to 4.37%.

Compared with CC(NC(C)(C)C)C(=O)c1cccc(Cl)c1 (centres unmarked) [BUPROPION], CN1CCC[C@@H]1CCO[C@](C)(c1ccccc1)c1ccc(Cl)cc1 [CLEMASTINE] is lower in viability at 10 µM: 55.5% for the first, 6.19% for the second.

Going from CS(=O)(=O)OCCCCOS(C)(=O)=O [BUSULFAN] to CN/C(=N/CCSCc1nc[nH]c1C)NC#N [CIMETIDINE], the viability at 10 µM rises from 13.3% to 34.4%.

Compared with CC[C@H]1OC(=O)[C@H](C)[C@@H](O[C@H]2C[C@@](C)(OC)[C@@H](O)[C@H](C)O2)[C@H](C)[C@@H](O[C@@H]2O[C@H](C)C[C@H](N(C)C)[C@H]2O)[C@](C)(OC)C[C@@H](C)C(=O)[C@H](C)[C@@H](O)[C@]1(C)O [CLARITHROMYCIN], Cc1cc(N)c2ccccc2[n+]1CCCCCCCCCC[n+]1c(C)cc(N)c2ccccc21 [DEQUALINIUM CHLORIDE] is lower in viability at 10 µM: 55.1% for the first, 10.5% for the second.

Going from Clc1ccccc1C(c1ccccc1)(c1ccccc1)n1ccnc1 [CLOTRIMAZOLE] to Nc1ccc(S(=O)(=O)c2ccc(N)cc2)cc1 [DAPSONE], the viability at 10 µM rises from 12.4% to 18.6%.

Same assay, conditions: drug 10 μM 1 h before FeSO4 25 or 50 μM; MAP-2 neurons after 24 h

First: CC(C)NCC(O)COc1cccc2ccccc12.Cl (racemic) [PROPRANOLOL HYDROCHLORIDE (+/−)]
Second: CN(C)CC[C@@H](c1ccc(Cl)cc1)c1ccccn1.O=C(O)/C=C\C(=O)O [CHLORPHENIRAMINE(S) MALEATE]
The “Drug % control (mean): number of neurons normalized to untreated control” value of the first is higher: 66.49% for the first, 52.32% for the second.

Going from NCC[C@H](O)C(=O)N[C@@H]1C[C@H](N)[C@@H](O[C@H]2O[C@H](CN)[C@@H](O)[C@H](O)[C@H]2O)[C@H](O)[C@H]1O[C@H]1O[C@H](CO)[C@@H](O)[C@H](N)[C@H]1O.O=S(=O)(O)O.O=S(=O)(O)O [AMIKACIN SULFATE] to CCOc1nc2cccc(C(=O)OC(C)OC(=O)OC3CCCCC3)c2n1Cc1ccc(-c2ccccc2-c2nn[nH]n2)cc1 (centres unmarked) [CANDESARTAN CILEXTIL], the “Drug % control (mean): number of neurons normalized to untreated control” value falls from 35.92% to 35.48%.

First: CC(C)c1c(C(=O)Nc2ccccc2)c(-c2ccccc2)c(-c2ccc(F)cc2)n1CC[C@@H](O)C[C@@H](O)CC(=O)[O-].CC(C)c1c(C(=O)Nc2ccccc2)c(-c2ccccc2)c(-c2ccc(F)cc2)n1CC[C@@H](O)C[C@@H](O)CC(=O)[O-].[Ca+2] [ATORVASTATIN CALCIUM]
Second: CN(C)CCOC(c1ccccc1)c1ccccc1.Cn1c(=O)c2[nH]c(Cl)nc2n(C)c1=O [DIMENHYDRINATE]
The “Drug % control (mean): number of neurons normalized to untreated control” value of the first is higher: 68.87% for the first, 36.53% for the second.
